According to patent US20250200763A1, “4D FLUORESCENCE MICROSCOPY ORGANELLE NETWORK TRACKING” (THE REGENTS OF THE UNIVERSITY OF CALIFORNIA, priority 2022, published 2025):
“Also recorded” adds a separate entry of the source.

Tests used:
[1] = system: mitochondrial network in hiPSCs; assay: Network reachability: random walk / material diffusion simulation on tracked temporal mitochondrial networks; format: cell-based, human; settings: drug-treated, control 0.18
Protocol: To quantify transport across the 4D mitochondrial network, a random walk on the tracked temporal mitochondrial networks was simulated and the process was measured in the form of network reachability (see “Material diffusion simulation on temporal mitochondrial networks”). Reachability for a node indicates how easily can material/information reach this node from various parts of the overall network, via the time respecting paths defined by the network tracking.
Diffusion simulation was used on temporal dynamic mitochondrial network to understand the flow of material in mitochondrial networks. To calculate global reachability, we initiate a virtual token at every node of the mitochondrial network at the first timestep. Each token is labeled by the source node from which it originated. At every timestep, each node duplicates the tokens it currently has, and transfers them to the connected neighbors. At the end of the simulation, the global reachability for each node is quantified by the number of unique tokens at that node, corresponding to the number of source nodes this node can reach.
FIGS. 25A and 25B illustrate schematics for material diffusion simulation on temporal network. FIG. 25A illustrates the global reachability simulation. From each node, material can diffuse into the neighboring nodes or stay in the source node. All possible diffusion pathways over time are marked with an arrow. Time is depicted from left to right. Arrows in different thicknesses 2502, 2504, 2506, 2508, 2510, 2512 indicate representative simulation scenarios. After four timesteps, the target node labeled with X has accumulated three tokens (through the transport arrows). FIG. 25B illustrates the calculation for betweenness centrality used for determining the central nodes.
Drug Treatments: All drugs were dissolved in DMSO to make a stock solution and diluted in PBS to prepare a 100× working stock. Cells were treated with oligomycin (20 μM, 2 hr), nocodazole (5 uM, 30 min), and MDIVI-1 (10 μM, 12 hr) without wash. […]

[2] = system: mitochondrial network in hiPSCs; assay: Fission/fusion preference with respect to fragment size (normalized network fragment size difference); format: cell-based, human; settings: hiPSCs with disrupted microtubules, vs DMSO control
Protocol: To detect fission and fusion events in the network, a sliding-window approach is applied to identify nodes that undergo persistent structural changes as opposed to transient segmentation variations. First, the fragment indices for each node are recorded for the half win size frames before and after the current frame, to form the fragment list. Second, for each network edge, the fragment lists for the connected nodes are compared. Fission will be declared if the fragment lists before the current frame are strictly identical, as well as the fragment lists after the current frame are strictly non-overlapping. Since fusion events can be considered as fission events reversed in time, the opposite criterion is used for fusion detection. In the case that multiple remodeling nodes are located in proximity (less than 5 edges away), the nodes are grouped into a single fission/fusion site. At last, the center of the sliding window is moved to the next frame and the computation is iterated.
To provide mechanistic insights into network remodeling, the motility between randomly selected nodes and nodes undergoing fission and fusion was compared. […] Based on node tracking, each individual mitochondrial network fragment can be tracked as shown in FIG. 17C and the selectivity of fission and fusion events recorded in terms of fragment size. […]

[3] = system: mitochondrial network in hiPSCs; assay: Mitochondrial temporal network remodeling (mean degree difference, temporal intersection) from MitoTNT 4D tracking of LLSM data; format: cell-based, human; settings: drug-treated; for mean degree difference (DD): control DD 0.28, low DD = little remodeling; for temporal intersection (TI): control TI 0.58, low TI = drastic remodeling
Protocol: To quantify mitochondrial network remodeling, the mean degree difference (DD) and the temporal intersection (TI) were calculated. A low DD indicates a low rate of nodes breaking off from their neighbors and reconnecting with other nodes. Inversely, a low TI implies that the network is very dynamic and does undergo drastic remodeling. […] In contrast, when treated with oligomycin, it was observed a 0.52 DD and 0.44 TI indicating a high level of network remodeling. Cytoskeleton influences drive network remodeling events were hypothesized.
Human induced pluripotent stem cell (hiPSC) culture: All studies involving hiPSCs were performed under approval from the University of California San Diego IRB/ESCRO committee. WTC hiPSCs expressing the CAAX domain of K-ras tagged with m TagRFP-T were created at the Allen Institute for Cell Science and obtained through the UCB Cell Culture Facility. hiPSC colonies were expanded on dishes coated with growth factor reduced Matrigel (Corning, 354230) in mTeSR1 (Stemcell Technologies, 85850) containing 1% penicillin/streptomycin (Gibco, 15140122). Colonies were washed with DPBS (Gibco, 14190144) and detached with accutase (Stemcell Technologies, 07920) before plating onto imaging dishes. Cultures were tested routinely for mycoplasma.
Drug Treatments: All drugs were dissolved in DMSO to make a stock solution and diluted in PBS to prepare a 100× working stock. Cells were treated with oligomycin (20 μM, 2 hr), nocodazole (5 uM, 30 min), and MDIVI-1 (10 μM, 12 hr) without wash.
Live cell imaging: 371 CAAX-RFPhiPSCs were stained with 100 nM Mito Tracker Green FM (Invitrogen, M7514) for 30 min prior to imaging. Cells were plated onto 25 mm MatTek dishes and imaged in phenol-red free mTeSR1 (Stemcell Technologies, 85850). Cells were kept under 5% CO2 and 37 degrees C. For imaging, Zeiss LLSM 7 was used with 10×N.A. 0.4 illumination objective lens and 48×375 N.A. 1.0 detection objective lens. Images were acquired in two channels: green channel with excitation at 488 nm and emission at 512 nm; red channel with excitation at 561 nm and emission at 597 nm. For both channels we used 18% laser power and 8 ms exposure. The illumination light-sheet was the Sinc3 beam with length 15 μm, thickness 650 nm and no side lobes. The volume size was 2048×448×57 pixels or 296.94×64.96×8.12 μm with isotropic pixel size 145 nm after coverglass transformation. Images were saved with bit depth 16 bits. For each region, 93 frames were imaged with frame rate 3.26 s per volume for total 5 min. For LLSM data processing, the Lattice Lightsheet 7 Processing Module on ZEN Blue was used for deconvolution, deskew, and cover glass transformation. Further processing is then done using MitoGraph and MitoTNT.

[4] = system: mitochondria networks in cells; assay: Distribution of graph size ratio for fission/fusion events (preliminary 4D network tracking); format: cell-based; settings: microtubule-disrupted cells vs DMSO control cells
Protocol: Preliminary results. 4D mitochondrial network tracking and fission/fusion statistics analysis indicate a selection bias in fission and fusion reaction in normal cells, which is not present when cells are treated with nocodazole. FIGS. 3A and 3B show data plots depicting a distribution of graph size ratio for fission/fusion events. Depicted is the normalized mitochondria fragment size immediately after or before fission or fusion events, respectively. Graph size ratio for a particular mitochondria undergoing fission/fusion computed as the size of the mitochondria network normalized by the total size of all mitochondria networks involved. Values close to 0 and 1 correspond to small and large mitochondria relative to the total size. The metric is calculated and plotted for every fragment undergoing detected fission/fusion events. FIGS. 3A and 3B illustrate histogram bars and gaussian-smoothed curves for fission and fusion. The gaussian-smoothed curves 310 and 330 are for fission and the gaussian-smoothed curves 320 and 340 are for fusion.

[5] = system: mitochondrial network in hiPSCs; assay: Mitochondrial network motility and motion correlation analysis by node tracking; format: cell-based, human
From the text: To measure the network motility of the mitochondrial network, mean-square-displacements (MSDs) vs. time delay curves are computed following previous works. The node ensemble averaged MSDs are plotted for control and oligomycin (See FIGS. 24A and 24B). The MSDs for single tracks are plotted for control and oligomycin (See FIGS. 24C and 24D). Around 80% of the nodes have a coefficient of determination for linear fit greater than 0.8 (see FIG. 15F). To map diffusivity onto mitochondrial nodes, the network nodes are firstly chosen at a center frame. Next, the node track coordinates 10 frames before and 10 frames after the center frame are collected. In a last step, the MSDs are computed at various time delays in this time window to determine the diffusivity of each node.
To compute vector correlation, the displacement vector is firstly obtained for a selected node at a selected frame. Next, the vector correlation is computed, as well as the vectors for the selected node at timepoints 1 frame before and after the selected frame. The vector correlation is computed between this vector and vectors for the nodes directly connected to it and given by the dot product of two vectors, divided by the square of the norm of the longer vector. The final correlation value for the selected node at the selected time is reported as the average of these two values.
To further investigate network branch motility, tracking vectors correlated between adjacent nodes on the same segment, and between the same node at consecutive frames. […] In contrast, temporal correlation between frames is predominantly zero (random motion) to slightly negative (oscillating motion), while interspersed with short period of positive values (directional motion) as shown in FIG. 16E. […] In FIG. 16F, the correlation along skeleton 1610 and the correlation in time 1620 are shown. The ATP synthase inhibitor oligomycin that induces mitochondrial fragmentation was employed to investigate if motion correlation findings are dependent upon network morphologies as shown in FIGS. 16G and 16H. […]

Row | SMILES | average reachability of network nodes [1] | asymmetric fission/fusion events [2] | mean degree difference (DD) [3] | temporal intersection (TI) [3] | distribution of graph size ratio for fission/fusion events (selection bias) [4] | motility of drug induced fragments ([5]; vs DMSO control) | spatial motion correlation (along skeleton) ([5]; vs control) | temporal motion correlation (between frames) ([5]; vs control)
1 | COc1cc(-n2c(=S)[nH]c3ccccc3c2=O)c(Cl)cc1Cl [mdivi-1] | 0.35 |  |  |  |  |  |  | 
2 | COC(=O)Nc1nc2ccc(C(=O)c3cccs3)cc2[nH]1 [nocodazole] | 0.29 | less pronounced but preserved; also recorded: a decrease in asymmetric fission/fusion | did not induce drastic changes | did not induce drastic changes | not present; also recorded: flatter distribution |  |  | 
3 | CC[C@H]1/C=C/C=C/C[C@@H](C)[C@H](O)[C@@](C)(O)C(=O)[C@@H](C)[C@H](O)[C@@H](C)C(=O)[C@@H](C)[C@H](O)[C@@H](C)/C=C/C(=O)O[C@@H]2[C@H](C)[C@H](CC1)O[C@]1(CC[C@H](C)[C@H](C[C@@H](C)O)O1)[C@H]2C [oligomycin] | 0.64 |  | 0.52 | 0.44 |  | move considerably faster compared to control | dropped | remains similar
